System: Glacc110 (purified laccase of G. leucocontextum)
Test: spectrophotometric oxidation assay at […] nm, Lineweaver-Burk plot
Format: biochemical, Ganoderma leucocontextum
Conditions: 1-10 mM guaiacol, 100 mM citrate-phosphate buffer, pH 3.0; temperature not stated for kinetics

Question: COc1ccccc1O [guaiacol] was tested. Which Km did it give?
Answer: Its Km is 1660 µM.

Source: article PMC8844424, “Optimization, purification and characterization of laccase from Ganoderma leucocontextum along with its phylogenetic relationship” (Scientific Reports, 2022)
